According to US20260248762A1, “RRX-001 FOR […]-INFARCT ADVERSE V[…] COMPLICATIONS” (EpicentRx, Inc., priority 2022, published 2026):

Assays:
Male Wistar rats [1] = experiment: Acute changes in heart rate during reperfusion, rat myocardial ischemia reperfusion; assay type: in vivo; conditions: infusion of RRx-001, i.v. in DMSO; in sham animals or relative to animals with I/R; FIG. 1
Experimental: (§1) Animal experiments were performed in accordance with protocols approved. Male Wistar rats or subjects (about 8-9 weeks old) were purchased from Charles River (San Diego, California) and allowed about 1 week to acclimatize to the new environment prior to random allocation into four groups (n=8 per group). The groups included: a first group 106 (sham), a second group 108 (RRx-001), a third group 110 (RRx-001 I/R), and a fourth group 112 (I/R).
(§2) The first group 106 included sham subjects (e.g., no treatment). The subjects of the second group 108 were given about 5 mg/kg of RRx-001 prepared in dimethyl sulfoxide (DMSO) and administered to the subjects via intravenous administration. The subjects of the second group 108 were not subjected to ischemia. […]
(§3) Regarding the myocardial ischemia reperfusion, the subjects were anesthetized with isoflurane (5% induction and 2% maintenance in 30% oxygen) and placed on a thermal heating pad. […] The knot was removed, the chest was closed, and the hearts of the subjects were monitored for a time period of one hour during reperfusion. […]
FIG. 1 depicts a graph comparing acute changes in heart rate (HR) during reperfusion for various groups of Example 1, according to at least some embodiments disclosed herein. FIG. 1 includes an x-axis 102 associated with time (measured in minutes) and a y-axis 104 associated with HR (measured in beats per minute or “bpm”).

Male Wistar rats [2] = experiment: Hypotensive effects after RRx-001 treatment; assay type: in vivo, rat; conditions: treatment after reperfused MI
Experimental: as §1
as §2, with “ischemia. The subjects of the third group 110 were administered about 0.5 mg/kg of RRx-001 prepared in DMSO via intravenous administration during reperfusion after ischemia. The subjects of the fourth group 112 were untreated, but subjected to ischemia and reperfusion.” for “ischemia.”
as §3

O=C(CBr)N1CC([N+](=O)[O-])([N+](=O)[O-])C1 [RRx-001, 2-bromo-1-(3,3-dinitroazetidin-1-yl)ethan-1-one]
acute changes in heart rate (HR) during reperfusion (Male Wistar rats [1]): did not result in any acute changes in HR
hypotensive effects (Male Wistar rats [2]): No hypotensive effects were observed
